Test [1] has as its system IgE-mediated auricle edema. Put plainly: Auricle edema in experimental atopic dermatitis model (anti-DNP IgE sensitization, DNFB elicitation). Type of test: in vivo, Balb/c mice. As to conditions: for % Inhibition vLPR: 7 or 8 days post-elicitation; for % Inhibition vLPR / % Inhibition IPR / % Inhibition LPR: painted on auricles 60 µg/ear/dose in ethanol twice a day; for % Inhibition IPR: 1 hour post-elicitation, 1 hour pre-elicitation to 6 days post-elicitation; for % Inhibition LPR: 1 day post-elicitation. As to the method:
Intravenous injection of an anti-2,4-dinitrophenol (DNP) antibody (anti-DNP Ab, monoclonal IgE Ab; its antibody titer was 1 : 512 to 1 : 1024 by a rat heterologous passive cutaneous anaphylaxis reaction using a Wister rat) into a tail vein of female Balb/c mice (7-week old, body weight: 17 to 20 g, purchased from JAPAN SLC, Inc.) at a dose of […] per animal raised passive sensitization. Twenty four hours post-sensitization, 0.1% 2,4-dinitrofluorobenzene (DNFB; Nacalai Tesque, Inc.) in ethanol was painted onto both sides of a pair of mouse auricles at a dose of 10 µL per each side for elicitation.
Fresh unsensitized mice were painted with 0.1% DNFB in ethanol onto their ear in the same manner as aforementioned and served as a control group. Not only immediately prior to elicitation but also 1 hour, 5 hours, daily between Days 1 and 14, and on Day 16 post-elicitation, ear thickness was measured using a dial thickness gauge (Peacock Co.). Each degree of auricle edemas was calculated: Auricular Edema (µm)=(Ear Thickness Post-Elicitation, µm) - (Ear Thickness immediately prior to Elicitation, µm) [formula]
Balb/c mice were passively sensitized with anti-DNP IgE Ab in the same manner as in Example 1. Twenty four hours later, 0.1% DNFB in ethanol was painted onto both sides of a pair of mouse auricles at a dose of 10 µL per each side for elicitation.
Immediately prior to elicitation, 1 hour and on Day 1 post-elicitation, auricle thickness was measured in the same manner as in Example 1. Each therapeutic efficacy is recorded as a percent inhibition wherein the "auricle edema (untreated group)" is used as a control. Auricle Edema Inhibition (%) = [ 1 -(Auricle Edema (Treated Group))/(Auricle Edema (Untreated Group))] × 100 (%) [formula]
Mice were sensitized with anti-DNP IgE Ab and then elicited by painting 0.1% DNFB in ethanol onto both sides of a pair of mouse auricles at a dose of 10 µL per each side 24 hours post-sensitization in the same manner as in Example 1. […] Immediately prior to elicitation, and on Day 7 post-elicitation, auricle thickness was similarly measured. Each therapeutic efficacy is recorded as a percent inhibition wherein the auricle edema in the untreated group is used as a control.
Mice were sensitized with anti-DNP IgE Ab and then elicited by painting 0.1% DNFB in ethanol onto both sides of a pair of mouse auricles at a dose of 10 µL per each side 24 hours post-sensitization in the same manner as in Example 1. […] Immediately prior to elicitation, and on Day 7 post-elicitation, auricle thickness was similarly measured. Each therapeutic efficacy is recorded as a percent inhibition wherein the auricle edema (untreated group) is used as a control.
Mice were sensitized with anti-DNP IgE Ab and then elicited by painting 0.1% DNFB in ethanol onto both sides of a pair of mouse auricles at a dose of 10 µL per each side 24 hours post-sensitization in the same manner as in Example 1. […] Immediately prior to elicitation, at 1 and 4 hours and on Days 1, 3 and 7 post-elicitation, auricle thickness was similarly measured. From each auricle edema (µm) based on the auricle thickness immediately prior to elicitation, especially a prophylactically therapeutic efficacy of the test compound was evaluated.
Mice were sensitized with anti-DNP IgE Ab and then elicited by painting 0.1% DNFB in ethanol onto both sides of a pair of mouse auricles at a dose of 10 µL per each side 24 hours post-sensitization in the same manner as in Example 1. A solution of a test metalloproteinase inhibitor (Compound No. 8; 50 µg/ear/dose, twice a day) in ethanol was painted onto both sides of a pair of the mouse auricles 1 hour pre-elicitation, 0.25, 3, 4, 5 and 6 days post-elicitation (5 animals per group). Immediately prior to elicitation, at 0.5, 1 and 4 hours and on Days 1, 3 and 7 post-elicitation, auricle thickness was similarly measured. Each amount of auricle edemas was calculated (average± standard deviation). […]

Another test deals with Allergic Peritonitis. The test can be described thus: Allergic peritonitis induced by ovalbumin. The format is in vivo, male Balb/c mice. The conditions noted are these: for inhibition of infiltration of lymphocytes/macrophages into the peritoneal cavity: ovalbumin challenge. As to the method:
In the same manner as in Example 23, mice were actively sensitized with ovalbumin and Alum, and, on Day 14 after the initial sensitization, elicited with an inducing antigen solution. A test metalloproteinase inhibitor compound (Compound No. 20: 30 mg/kg) or a negative control solvent, physiological saline (10 mL/kg), was administered subcutaneously to each animal 6, 3 hours, and 5 minutes pre-induction, 3, and 6 hours post-induction. At 24 hours post-induction, a physiological saline (containing heparin) was injected intraperitoneally at 4 mL/mouse for peritoneal lavage. An aliquot of the retrieved washout medium was taken, and not only measured for a PEC density but also stained for PEC followed by fractional counting. Each effect of the compound on the total PEC number (PEC density× 4 mL), and eosinophils and lymphocytes/macrophages is shown in Table 15. Almost similarly to Examples 22 to 24, the total PEC number and the numbers of eosinophils and lymphocytes/macrophages in the peritoneal cavity are reduced.
Each efficacy on intraperitoneal exudation of neutrophils was examined according to the methods as disclosed in Ouchi et al., "Seibutsu Yakukagaku Jikken Koza, Ensho To Allergy (Inflammation and Allergy) I-3", pp.139 to 151, Hirokawa Publishing Co., Japan and Spicer et al., The International Archives of Allergy and Applied Immunology, 81: 81 to 84, 1986.
In the same manner as in Example 23, male Balb/c mice were sensitized with ovalbumin and an aluminum hydroxide gel, and, on Day 14 after the initial sensitization, elicited with an antigen solution to raise allergic peritonitis. Each test metalloproteinase inhibitor (Compound No. 20 or 21: 30 mg/kg) or a negative control solvent, physiological saline (10 mL/kg), was administered subcutaneously to each animal 1 hour prior to induction, and 3 hours post-induction. At 6 hours post-induction, peritoneal lavage was done similarly to Example 22, measured for a PEC density, and counted for the total PEC number. In the same manner as in Example 22, PEC was stained, and subjected to fractional counting under a microscope with classification into neutrophils, eosinophils, lymphocytes/macrophages and basophils based on their form and stain nature. Each cell ratio was as follows: 2.3% (neutrophil), 1.1% (eosinophil), 95.4% (lymphocyte/macrophage), and 1.2% (basophil) for unsensitized/physiological saline-administered mice; and 5.7% (neutrophil), 11.9% (eosinophil), 81.3% (lymphocyte/macrophage), and 1.1% (basophil) for sensitized/physiological saline-administered mice. By a similar line of reasoning in Example 22, basophils were excluded from subjects to be examined. In the same manner as in Example 22, intraperitoneal exudation inhibition rates were calculated and expressed as the therapeutic efficacies.

Where [2] appears, read: 30 mg/kg s.c. 6, 3 hours and 5 minutes pre-induction, 3 and 6 hours post-induction, 24 hours post-induction (Example 25).
[3] abbreviates: 30 mg/kg s.c. 1 hour prior to and 3 hours post-induction, 6 hours post-induction (Example 26).

Take `CNC(=O)[C@H](Cc1ccc(NC(=N)N)cc1)NC(=O)[C@H](CC(C)C)C(CCCc1ccccc1)C(=O)NO` (single isomer, unassigned) [Compound No. 8, N-[4-(N-hydroxyamino)-2(R)-isobutyl-3(R or S)-(3-phenyltrimethylene)succinyl]-L-4'-guanidophenylalanine-N-methylamide 1 acetate]: in test [1] (60 mg/kg s.c. only 24 and 2 hours prior to elicitation, compared with prednisolone 10 mg/kg i.p.), the “inhibitory efficacy on IgE-mediated auricle edema in IPR, LPR and vLPR (FIG. 6)” value is “edema-inhibitory activity equivalent to that of prednisolone in IPR and slightly and markedly higher than that of prednisolone in LPR and vLPR”. Further, in test [1] (painted on auricles, 50 µg/ear/dose in ethanol, 1 hour pre-elicitation and 0.25, 3, 4, 5, 6 days post-elicitation), the “inhibitory efficacy on IgE-mediated auricle edema in IPR, LPR and vLPR (FIG. 7)” value was “endowed with an inhibitory activity on edemas in any of IPR, LPR, and vLPR”. For the same compound, the “inhibition of infiltration of lymphocytes/macrophages into the peritoneal cavity” value with Allergic Peritonitis (30 mg/kg i.p. 5 minutes prior to and 3 and 6 hours post-induction (Example 23)) is recorded as 74.9%; in the test on Allergic Peritonitis (30 mg/kg s.c. 6 hours and 5 minutes prior to induction, 24 hours after induction (Example 24)), 91.2%.

Turning to `CNC(=O)[C@H](Cc1ccc(NC(=N)N)cc1)NC(=O)[C@H](CC(C)C)C(CCCc1ccccc1)C(=O)NO.Cl` (single isomer, unassigned) [Compound No. 20, N-[4-(N-hydroxyamino)-2(R)-isobutyl-3(R or S)-(3-phenyltrimethylene)succinyl]-L-4'-guanidophenylalanine-N-methylamide 1 hydrochloride], in test [1], the “% Inhibition vLPR” value came to 31%, the “% Inhibition IPR” value is given as 56% and the “% Inhibition LPR” value turned out to be 58%. In the test on Allergic Peritonitis (setting [2]), the “Leukocyte exudate inhibition rate (%) (Macrophages)/(Lymphocytes)” value is 55.1%, the “Leukocyte exudate inhibition rate (%) Eosinophils” value is recorded as 38.9% and the “Leukocyte exudate inhibition rate (%) Total PEC Number” value came to 49.6%. Also, in the test with Allergic Peritonitis (setting [3]), the “Leukocyte exudate inhibition rate (%) Eosinophils” value was found to be 38.4%, the “Leukocyte exudate inhibition rate (%) Neutrophils” value amounted to 41.4% and the “Leukocyte exudate inhibition rate (%) Total PEC Number” value was 40.9%.

For `CNC(=O)[C@H](Cc1ccc(N=C(N)N)cc1)NC(=O)[C@@H](CC(=O)NO)CC(C)C.O=S(=O)(O)O` [Compound No. 21, N-[4-(N-hydroxyamino)-2(R)-isobutylsuccinyl]-L-4'-guanidophenylalanine-N-methylamide 1 sulfate], in test [1], the “% Inhibition vLPR” value was 35%, the “% Inhibition IPR” value was found to be 31% and the “% Inhibition LPR” value was 22%. Further, in the test on Allergic Peritonitis (setting [3]), the “Leukocyte exudate inhibition rate (%) Neutrophils” value is listed as 27.1% and the “Leukocyte exudate inhibition rate (%) Total PEC Number” value was 38.6%.
